Consider 14 compounds from PMC4984408 (ChemistryOpen, 2016).

Like-named read-outs stand apart in the source and are kept apart here.

Data set [1] concerns dengue viruses (DENV, serotype D2). Format: cell-based, dengue virus.
The subject of data set [2] is Vero cells.
Data set [3] deals with yellow fever (YFV, 17 D strain of ASIBI). Format: cell-based, yellow fever virus.

For orientation: CC50 means the concentration at which the toxic effect on the cells reaches its halfway point. A high value points to better tolerance by the cells. Take `COc1ccc(C(OC[C@H]2O[C@@H](n3ccc(=O)[nH]c3=O)[C@H](O)[C@@H]2O)(c2ccccc2)c2ccc(OC)cc2)cc1` [9 H, 5′‐O‐Dimethoxytrityluridine]: the “D2 inhibition [% Cells alive]” value in data set [1] (5 μM), in data set [1] (10 μM) and in data set [1] (20 μM) was 0 % Cells alive in each case. Besides, the CC50 in data set [2] was more than 20 µM.
Consider `Cc1cn([C@@H]2O[C@H](COC(c3ccccc3)(c3ccccc3)c3ccccc3)[C@@H](O)[C@H]2O)c(=O)[nH]c1=O` [19 D, 5′‐O‐trityl‐5‐methyluridine], for which the “YFV inhibition [% Cells alive]” value in data set [3] (5 μM) and in data set [3] (10 μM) was 0 % Cells alive each time. Besides, the “anti-DENV activity (in words)” value in data set [1] is on record as “no inhibitory properties”. Besides, the “D2 inhibition [% Cells alive]” value in data set [1] (5 μM), in data set [1] (10 μM) and in data set [1] (20 μM) was 0 % Cells alive in each case.
Regarding `O=c1[nH]c(=O)n([C@H]2C[C@H](O)[C@@H](COC(c3ccccc3)(c3ccccc3)c3ccccc3)O2)cc1I` [14 D, 5′‐O‐Trityl‐5‐iodo‐2′‐deoxyuridine], the “YFV inhibition [% Cells alive]” value in data set [3] (5 μM), in data set [3] (10 μM) and in data set [3] (20 μM) was 0 % Cells alive throughout. The “D2 inhibition [% Cells alive]” value in data set [1] (5 μM) was found to be 0 % Cells alive; in data set [1] (10 μM), 0 % Cells alive; in data set [1] (20 μM), 2.47±0.06 % Cells alive.
With `O=c1ccn([C@@H]2O[C@H](COC(c3ccccc3)(c3ccccc3)c3ccccc3)[C@@H](O)[C@H]2F)c(=O)[nH]1` [16 D, 5′‐O‐trityl‐2′‐fluoro‐2′‐deoxyuridine], the “YFV inhibition [% Cells alive]” value in data set [3] (5 μM), in data set [3] (10 μM) and in data set [3] (20 μM) was 0 % Cells alive throughout. For the same compound, the “D2 inhibition [% Cells alive]” value in data set [1] (5 μM) and in data set [1] (10 μM) was 0 % Cells alive each time.
As for `NC(=O)c1ncn([C@@H]2O[C@H](COC(c3ccccc3)(c3ccccc3)c3ccccc3)[C@@H](OC(c3ccccc3)(c3ccccc3)c3ccccc3)[C@H]2O)n1` [5 B, 5′,3′‐bis‐O‐tritylribavirin], the “YFV inhibition [% Cells alive]” value in data set [3] (5 μM), in data set [3] (10 μM) and in data set [3] (20 μM) was 0 % Cells alive throughout. Moreover, the “D2 inhibition [% Cells alive]” value in data set [1] (5 μM) and in data set [1] (10 μM) was 0 % Cells alive each time. The same compound yielded a CC50 in data set [2] of more than 20 µM.
On to `COc1ccc(C(OC[C@H]2O[C@@H](n3cc(F)c(=O)[nH]c3=O)C[C@@H]2O)(c2ccccc2)c2ccc(OC)cc2)cc1` [15 H, 5′‐O‐dimethoxytrityl‐5‐fluoro‐2′‐deoxyuridine], for which, in data set [3] (5 μM), the “YFV inhibition [% Cells alive]” value is listed as 0 % Cells alive. The “D2 inhibition [% Cells alive]” value in data set [1] (5 μM), in data set [1] (10 μM) and in data set [1] (20 μM) was 0 % Cells alive in each case. Further, the CC50 in data set [2] is more than 20 µM.
With `O=c1[nH]c(=O)n([C@@H]2O[C@H](COC(c3ccccc3)(c3ccccc3)c3ccccc3)[C@@H](O)[C@H]2O)cc1F` [6 D, 5′‐O‐trityl‐5‐fluorouridine], the “YFV inhibition [% Cells alive]” value in data set [3] (5 μM) and in data set [3] (10 μM) was 0 % Cells alive throughout. Besides, the “anti-DENV activity (in words)” value in data set [1] is “no inhibitory properties”. Further, the “D2 inhibition [% Cells alive]” value in data set [1] (5 μM), in data set [1] (10 μM) and in data set [1] (20 μM) was 0 % Cells alive in each case.
With `Cc1cn([C@H]2C[C@H](OC(c3ccccc3)(c3ccccc3)c3ccccc3)[C@@H](COC(c3ccccc3)(c3ccccc3)c3ccccc3)O2)c(=O)[nH]c1=O` [21 B, 5′,3′‐bis‐O‐trityl‐thymidine], the “YFV inhibition [% Cells alive]” value in data set [3] (5 μM) came out at 0 % Cells alive; in data set [3] (10 μM) it was 0 % Cells alive; in data set [3] (20 μM) it was 0.95±0.17 % Cells alive. Moreover, the “D2 inhibition [% Cells alive]” value in data set [1] (5 μM), in data set [1] (10 μM) and in data set [1] (20 μM) was 0 % Cells alive each time.
`COc1ccc(C(OC[C@H]2O[C@@H](n3ccc(=O)[nH]c3=O)[C@H](F)[C@@H]2O)(c2ccccc2)c2ccc(OC)cc2)cc1` [16 H, 5′‐O‐dimethoxytrityl‐2′‐fluoro‐2′‐deoxyuridine]: the “YFV inhibition [% Cells alive]” value in data set [3] (5 μM) and in data set [3] (10 μM) was 0 % Cells alive each time. Besides, the “D2 inhibition [% Cells alive]” value in data set [1] (5 μM), in data set [1] (10 μM) and in data set [1] (20 μM) was 0 % Cells alive in each case. For the same compound, the CC50 in data set [2] was more than 20 µM.
`O[C@H]1[C@H](O)[C@@H](COC(c2ccccc2)(c2ccccc2)c2ccccc2)O[C@H]1n1cnc2c(NC(c3ccccc3)(c3ccccc3)c3ccccc3)nc(F)nc21` [20 D‐NHTr, 5′‐O,N‐trityl‐fludarabine]: the “anti-YFV activity (in words)” value in data set [3] was “devoid of any significant anti‐YFV inhibitory effect”. For the same compound, the “YFV inhibition [% Cells alive]” value in data set [3] (5 μM) turned out to be 0 % Cells alive; in data set [3] (10 μM), 0.28 % Cells alive; in data set [3] (20 μM), 0.84 % Cells alive. The 50% cytotoxic concentration (CC50) in data set [2] was more than 20 µM. In data set [2], the “cytotoxicity (in words)” value is “no cytotoxicity”.
For `O=c1[nH]c(NC(c2ccccc2)(c2ccccc2)c2ccccc2)nc2c1ncn2CCC(COC(c1ccccc1)(c1ccccc1)c1ccccc1)COC(c1ccccc1)(c1ccccc1)c1ccccc1` [22 B‐NHTr, 2‐N,5′,3′‐O‐tri‐trityl penciclovir], the “YFV inhibition [% Cells alive]” value in data set [3] (5 μM) turned out to be 0 % Cells alive; in data set [3] (10 μM), 0 % Cells alive; in data set [3] (20 μM), 8.09±0.04 % Cells alive. Also, the “D2 inhibition [% Cells alive]” value in data set [1] (5 μM), in data set [1] (10 μM) and in data set [1] (20 μM) was 0 % Cells alive throughout. This compound displayed a CC50 in data set [2] of more than 20 µM.
Consider `Cc1cn([C@H]2C[C@H](O)[C@@H](COC(c3ccccc3)(c3ccccc3)c3ccccc3)O2)c(=O)[nH]c1=O` [Compound 1, 5′‐O‐trityl‐thymidine], for which the “YFV inhibition [% Cells alive]” value worked out at 0 % Cells alive in data set [3] (5 μM) and 1.25±0.03 % Cells alive in data set [3] (10 μM). Besides, the “anti-DENV activity (in words)” value in data set [1] was “no inhibitory properties”. The “D2 inhibition [% Cells alive]” value in data set [1] (5 μM), in data set [1] (10 μM) and in data set [1] (20 μM) was 0 % Cells alive throughout.
For the compound `COc1ccc(C(OC[C@H]2O[C@@H](n3cc(F)c(=O)[nH]c3=O)[C@H](O)[C@@H]2O)(c2ccccc2)c2ccc(OC)cc2)cc1` [6 H, 5′‐O‐dimethoxytrityl‐5‐fluorouridine], the “YFV inhibition [% Cells alive]” value in data set [3] (5 μM) is 9.22±0.46 % Cells alive; in data set [3] (10 μM) it was 30.89±1.85 % Cells alive. Besides, the “D2 inhibition [% Cells alive]” value in data set [1] (5 μM), in data set [1] (10 μM) and in data set [1] (20 μM) was 0 % Cells alive in each case. This compound registered a half-maximal cytotoxic concentration (CC50) in data set [2] of more than 20 µM.
`COc1ccc(C(OCC2OC(n3ccc(NC(C)=O)nc3=O)CS2)(c2ccccc2)c2ccc(OC)cc2)cc1` (stereo not shown) [12 H, 5′‐O‐Dimetoxytrityl‐N‐acetyl‐lamivudine]: the results for the “YFV inhibition [% Cells alive]” value in data set [3] (5 μM), in data set [3] (10 μM) and in data set [3] (20 μM) were 0 % Cells alive, 0 % Cells alive and 70.45±18.31 % Cells alive, respectively. The “D2 inhibition [% Cells alive]” value in data set [1] (5 μM), in data set [1] (10 μM) and in data set [1] (20 μM) was 0 % Cells alive throughout. Moreover, the cytotoxic concentration (CC50) in data set [2] is more than 20 µM.
